Test results taken from US7084178B2, “Antiamyloid phenylsulfonamides: N-cycloalkylcarboxamides derivatives” (Bristol-Myers Squibb Company, priority 2003, dated 2006).

system: Aβ formation in H4 cells stably transfected to overexpress the HPLAP-APP fusion protein; experiment: Inhibition of β-amyloid peptide formation in human H4 cells; type: cell-based; conditions: H4 cells overexpressing HPLAP-APP, 18 hrs at 37° C.
Procedure: γ-Secretase inhibitors can also be evaluated using in vitro assays based on the inhibition of Aβ formation in cultured cells. Cultured human cell lines, such as HEK293 and H4 cells, which express APP and γ-secretase activity or transfected derivative cell lines that overexpress wild-type APP, mutant APP, or APP fusion proteins will secrete Aβ peptides into the culture media that can be quantified as previously outlined (Dovey, H., John, V. et al., J. Neurochem. 2001, 76, 173–181). The incubation of these cultured cells with γ-secretase inhibitors decreases the production of Aβ peptides. For instance, H4 cells stably transfected to overexpress the HPLAP-APP fusion protein described above were grown as above, detached, and adjusted to 2×10^5 cells/ml. 100 μl of the resulting suspension was then added to each well of a 96-well plate. After 4 hrs, the media was removed and replaced with 100 μl serum-free media containing various dilutions of the test compound. Plates were then incubated for 18 hrs at 37° C. and a 100 μl aliquot of the tissue culture supernatant was removed for determination of Aβ levels using time-resolved fluorescence of the homogenous sample as outlined above. Alternately, the other methods described above for Aβ determination could be used. The extent of Aβ inhibition was used to calculate the IC50 value for the test compound.
In Table 2, an inhibitory concentration (IC50) of less than or equal to 50 nM is represented by +++; between 50 nM and 500 nM by ++; between 500 nM and 50000 nM by +.

| Compound | IC50 |
| --- | --- |
| (1S,2R)-2-[(4- Chlorobenzenesulfonyl)-[4-( -hydroxy-1-methyl-ethyl)-benzyl]-amino]-cyclohexanecarboxylic acid amide [Example 6] | ≤ 50 nM |

same assay, conditions: Homo sapiens; H4 cells overexpressing HPLAP-APP, 18 hrs at 37° C.

| Compound | IC50 |
| --- | --- |
| NC(=O)[C@@H]1CCCC[C@@H]1N(Cc1ccc(C(F)(F)F)cc1)S(=O)(=O)c1ccc(Cl)cc1 (relative stereo) [Example 10, cis-2-[(4-Chlorobenzenesulfonyl)-(4-trifluoromethyl-benzyl)-amino]-cyclohexanecarboxylic acid amide] | 50 to 500 nM |
| COC(=O)c1ccc(CN([C@@H]2CCCC[C@@H]2C(N)=O)S(=O)(=O)c2ccc(Cl)cc2)cc1 (relative stereo) [Example 13, cis-4-[[(2-Carbamoyl-cyclohexyl)-(4-chlorobenzenesulfonyl)-amino]-methyl]-benzoic acid methyl ester] | ≤ 50 nM |
| N#Cc1ccc(CN([C@H]2CCCCC[C@H]2C(N)=O)S(=O)(=O)c2ccc(Cl)cc2)cc1 (relative stereo) [Example 21, cis-2-[(4-Chlorobenzenesulfonyl)-(4-cyano-benzyl)-amino]-cycloheptanecarboxylic acid amide] | 500 to 50000 nM |
| CCNC(=O)c1ccc(CN([C@H]2CCCCC[C@H]2C(N)=O)S(=O)(=O)c2ccc(Cl)cc2)cc1 (relative stereo) [Example 24, cis-2-[(4-Chlorobenzenesulfonyl)-(4-ethylcarbamoyl-benzyl)-amino]-cycloheptanecarboxylic acid amide] | ≤ 50 nM |
| COC(=O)c1ccc(CN([C@@H]2CCCC[C@@H]2C(N)=O)S(=O)(=O)c2ccc(Cl)cc2)cc1 [Example 1, 4-[[(1R,2S)-(2-Carbamoyl-cyclohexyl)-(4-chlorobenzenesulfonyl)-amino]-methyl]-benzoic acid methyl ester] | ≤ 50 nM |
| CCNC(=O)c1ccc(CN([C@@H]2CCCC[C@@H]2C(N)=O)S(=O)(=O)c2ccc(Cl)cc2)cc1 [Example 2, 4-[[(1R,2S)-(2-Carbamoyl-cyclohexyl)-(4-chlorobenzenesulfonyl)-amino]-methyl]-N-ethyl-benzamide] | ≤ 50 nM |
| CC(C)(C)c1ccc(CN([C@@H]2CCCC[C@@H]2C(N)=O)S(=O)(=O)c2ccc(Cl)cc2)cc1 [Example 3, (1S,2R)-2-[(4-tert-Butyl-benzyl)-(4-chlorobenzenesulfonyl)-amino]-cyclohexanecarboxylic acid amide] | 50 to 500 nM |
| NC(=O)[C@H]1CCCC[C@H]1N(Cc1ccc(OC(F)(F)F)c(Cl)c1)S(=O)(=O)c1ccc(Cl)cc1 [Example 4, (1S,2R)-2-[(4-Chlorobenzenesulfonyl)-(3-chloro-4-trifluoromethoxy-benzyl)-amino]-cyclohexanecarboxylic acid amide] | 50 to 500 nM |
| NC(=O)[C@H]1CCCC[C@H]1N(Cc1ccc(F)c(Cl)c1)S(=O)(=O)c1ccc(Cl)cc1 [Example 5, (1S,2R)-2-[(4-Chlorobenzenesulfonyl)-(3-chloro-4fluoro-benzyl)-amino]-cyclohexanecarboxylic acid amide] | 50 to 500 nM |
| NC(=O)[C@H]1CCCC[C@H]1N(Cc1ccc(Cl)s1)S(=O)(=O)c1ccc(Cl)cc1 [Example 7, (1S,2R)-2-[(4-Chlorobenzenesulfonyl)-(5-chloro-thiophen-2-ylmethyl)-amino]-cyclohexanecarboxylic acid amide] | ≤ 50 nM |
| NC(=O)[C@H]1CCCC[C@H]1N(Cc1ccc(SC(F)(F)F)cc1)S(=O)(=O)c1ccc(Cl)cc1 [Example 8, (1S,2R)-2-[(4-Chlorobenzenesulfonyl)-(4-trifluoromethylsulfanyl-benzyl)-amino]-cyclohexanecarboxylic acid amide] | ≤ 50 nM |

system: γ-secretase; experiment: Competitive in vitro binding assay with [3H]-Compound A and membranes from THP-1 cells; conditions: displacement of [3H]-Compound A, THP-1 cell membranes, 23° C., 1.3 hr; read-out: Binding affinity (IC50 in nM)
Source text: Competitive in vitro binding assays can be used to identify compounds that inhibit γ-secretase activity. For example, [^3H]-Compound A can be used for binding assays with membranes from THP-1 cells (Seiffert, D.; Bradley, J. et al., J. Biol. Chem. 2000, 275, 34086–34091). Compound A is (2R,3S) N1-[(3S)-hexahydro-1-(3-phenoxybenzyl)-2-oxo-1H-azepin-3-yl]-2-(2methylpropyl)-3-(propyl)-butanediamide, which is described in U.S. patent U.S. Pat. No. 6,331,408 (Dec. 18, 2001); PCT Publication WO 00/28331; PCT Publication WO 00/07995; and Seiffert, D., Bradley, J. et al., J. Biol. Chem. 2000, 275. 34086–34091.
To evaluate the compounds of this invention using this assay, THP-1 cells were grown in spinner cultures in RPMI 1640 containing L-glutamine and 10 μM β-mercaptoethanol to a density of 5×10^5 cells/ml. Cells were harvested by centrifugation and cell pellets were quick frozen in dry ice/ethanol and stored at −70° C. prior to use. The pellets of approximately 2×10^4 THP-1 cells were homogenized using a Brinkman Polytron at setting 6 for 10 sec. The homogenate was centrifuged at 48,000×g for 12 min, and the resulting pellet was washed by repeating the homogenization and centrifugation. The final cell pellet was resuspended in buffer to yield a protein concentration of approximately 0.5 mg/ml. Assays were initiated by the addition of 150 μl of membrane suspension to 150 μl of assay buffer containing 0.064 μCi of radioligand and various concentrations of unlabeled compounds. Binding assays were performed in duplicate in polypropylene 96-well plates in a final volume of 0.3 ml containing 50 mM Hepes, pH 7.0, and 5% dimethyl sulfoxide. Nonspecific binding was defined using incubations with 300 nM compound A (Seiffert, D., Bradley, J. et al., J. Biol. Chem. 2000, 275, 34086–34091). After incubating at 23° C. for 1.3 hr, bound ligand was separated from free radioligand by filtration over GFF glass fiber filters presoaked in 0.3% ethyleneimine polymer solution. Filters were washed three times with 0.3 ml of ice cold phosphate-buffered saline, pH 7.0, containing 0.1% Triton X-100. Filter-bound radioactivity was measured by scintillation counting. IC50 values were then determined and used to calculate Ki values using the Cheng-Prusoft correction for IC50 values.
The compounds of this invention were evaluated in the assay described above, as well as with other evaluation methods, and found to be inhibitors of γ-secretase. In the table, an inhibitory concentration (IC50) of less than or equal to 50 nM is represented by +++; between 50 nM and 500 nM by ++; between 500 nM and 10000 nM by +.

| Compound | IC50 |
| --- | --- |
| COC(=O)c1ccc(CN([C@@H]2CCCCC[C@@H]2C(N)=O)S(=O)(=O)c2ccc(Cl)cc2)cc1 (relative stereo) [Example 20, cis-4-[[(2-Carbamoyl-cycloheptyl)-(4-chlorobenzenesulfonyl)-amino]-methyl]-benzoic acid methyl ester] | 50 to 500 nM |
| NC(=O)[C@@H]1CCCCC[C@@H]1N(Cc1ccc(-n2cccn2)cc1)S(=O)(=O)c1ccc(Cl)cc1 (relative stereo) [Example 23, cis-2-[(4-Chlorobenzenesulfonyl)-(4-pyrazol-1-yl-benzyl)-amino]-cycloheptanecarboxylic acid amide] | 500 to 10000 nM |
| COC(=O)c1ccc(CN([C@@H]2CCCC[C@@H]2C(N)=O)S(=O)(=O)c2ccc(Cl)cc2)cc1 [Example 1, 4-[[(1R,2S)-(2-Carbamoyl-cyclohexyl)-(4-chlorobenzenesulfonyl)-amino]-methyl]-benzoic acid methyl ester] | ≤ 50 nM |
| CCNC(=O)c1ccc(CN([C@@H]2CCCC[C@@H]2C(N)=O)S(=O)(=O)c2ccc(Cl)cc2)cc1 [Example 2, 4-[[(1R,2S)-(2-Carbamoyl-cyclohexyl)-(4-chlorobenzenesulfonyl)-amino]-methyl]-N-ethyl-benzamide] | ≤ 50 nM |
| CCNC(=O)c1ccc(CN([C@@H]2CCCC[C@@H]2C(N)=O)S(=O)(=O)c2ccc(Cl)cc2)cc1 [Example 28, 4-[[(1R,2S)-(2-Carbamoyl-cyclohexyl)-(4-chlorobenzenesulfonyl)-amino]-methyl]-N-ethyl benzamide] | 500 to 10000 nM |
| CCNC(=O)c1ccc(CN([C@H]2CCCC[C@@H]2C(N)=O)S(=O)(=O)c2ccc(Cl)cc2)cc1 [Example 29, 4-[[(1S,2S)-(2-Carbamoyl-cyclohexyl)-(4-chlorobenzenesulfonyl)-amino]-methyl]-N-ethyl benzamide] | 50 to 500 nM |
| CCNC(=O)c1ccc(CN([C@@H]2CCCC[C@H]2C(N)=O)S(=O)(=O)c2ccc(Cl)cc2)cc1 [Example 30, 4-[[(1R,2R)-(2-Carbamoyl-cyclohexyl)-(4-chlorobenzenesulfonyl)-amino]-methyl]-N-ethyl benzamide] | 50 to 500 nM |
| CCNC(=O)c1ccc(CN([C@@H]2CCC[C@@H]2C(N)=O)S(=O)(=O)c2ccc(Cl)cc2)cc1 [Example 31, 4-[[(1R,2S)-(2-Carbamoyl-cyclopentyl)-(4-chlorobenzenesulfonyl)-amino]-methyl]-N-ethyl-benzamide] | 50 to 500 nM |
| CCNC(=O)c1ccc(CN([C@@H]2CCC[C@H]2C(N)=O)S(=O)(=O)c2ccc(Cl)cc2)cc1 [Example 32, 4-[[(1R,2R)-(2-Carbamoyl-cyclopentyl)-(4-chlorobenzenesulfonyl)-amino]-methyl]-N-ethyl-benzamide] | 500 to 10000 nM |
